These results are taken from patent publication US8633208B2, “6-1H-imidazo-quinazoline and quinolines derivatives, new MAO inhibitors and imidazoline receptor ligands” (Rottapharm S.p.A, priority 2008, dated 2014).

Where a name gives a salt, the structure may show the parent alone. Read-outs that look alike come from different tables or passages of the source.

One series concerns the target human recombinant MAO-B (Homo sapiens (Human), UniProt P27338). Kind of series: Monoaminooxidase (MAO) activity assay, MAO-Glo luminescent method, MAO-B.
In the next series the target is human recombinant MAO-A (Homo sapiens (Human), UniProt P21397). The series can be described thus: Monoaminooxidase (MAO) activity assay, MAO-Glo luminescent method, MAO-A.
Another series has as its target I2 Imidazoline Receptor. The series can be described thus: Binding study towards I2 imidazoline receptor subtype in rat brain ([3H]2-BFI displacement). As to conditions: read-out: [3H]2-BFI binding IC50; rat whole brain membranes, [3H]-2BFI 2.5x10-9 M, 90 min at 25° C. Here is the method: Binding Study Towards I2 Imidazoline Receptor Subtype in Rat Brain.
Male Wistar rats (240-300 g, Harlan, Italy) were sacrificed by decapitation. Whole brains were immediately removed on ice and homogenised in 10 volumes of buffered sucrose (0.32M in 50 mM Tris-HCl, pH 7.4 at 4° C.) using a motor driven Teflon-glass homogeniser. The homogenate was centrifuged at 1000×g for 10 min at 4° C. The resultant supernatants were pooled and centrifuged at 32000×g for 20 min at 4° C. The supernatants were discarded and each pellet suspended in 10 volumes of assay buffer (50 mM Tris-HCl, 1 mM MgCl2, pH 7.4 at 4° C.) and spun at 32000×g for 20 min at 4° C. The pellets were washed twice by repeated centrifugation at 32000×g for 20 min at 4° C. The final pellets were stored at −80° C. until use. Prior to radioligand binding studies, membrane pellets were thawed and washed a further 4 times by re-suspension in 10 volumes of assay buffer (as above) and repeated centrifugation to remove any possible endogenous inhibitors of binding. […] Non specific binding was determined in the presence of 10^-5 M BU224 (Tocris Bioscience). The incubation, in a final volume of 1 ml, was performed in polystyrene multiwell 24, started adding membranes suspension and was carried out for 90 min at 25° C. With the exception of total binding and non specific binding, all concentration points were performed in duplicate. Compounds were tested in 3-5 different concentrations, ranging from 10^-10 M to 10^-5 M final concentration.

The next series deals with CD1 Mice. Kind of series: Tail suspension test in mice. It is filed as in vivo. The following applies: Table 3; for MPE (% inhibition in immobility time): 30 min before the test; for ED50: dose yielding 50% reduction of immobility, oral. The method, then:
Tail Suspension Test in Mice
To evaluate novel antidepressants compounds several animal models have been developed. […] The antidepressant effect of representative examples of compounds of formula (I) has been evaluated according to the procedure below. The immobility was induced according to the procedure of Stem et al. (1985). CD1 Mice (Harlan, Italy) were individually suspended 75 cm above the top with an adhesive tape placed 1 cm from the tip of the tail. Immobility duration was recorded for 5 min. Mice were considered immobile only when they hung passively and completely motionless. Compounds were given orally, 30 min before the test at doses ranging between 0.3 and 30 mg/kg. Data collected were expressed as mean percent effect (MPE), which represents the % of inhibition in immobility time between the animals treated with representative compounds of formula (I) and the controls that received only the vehicle.

In the next series the test system is rats. Kind of series: CFA model of inflammatory pain in rats (Randall-Selitto), potentiation of a low dose of morphine. It is filed as in vivo. The following applies: Example 1 1.5 mg/Kg OS and/or Morphine 0.5 mg/Kg SC.
The mark [1] stands for this setting: read-out: MAO A activity IC50, human recombinant MAO-A, substrate 40 μM, 60 min room temperature.

human recombinant MAO-B, sequence (P27338 whole entry): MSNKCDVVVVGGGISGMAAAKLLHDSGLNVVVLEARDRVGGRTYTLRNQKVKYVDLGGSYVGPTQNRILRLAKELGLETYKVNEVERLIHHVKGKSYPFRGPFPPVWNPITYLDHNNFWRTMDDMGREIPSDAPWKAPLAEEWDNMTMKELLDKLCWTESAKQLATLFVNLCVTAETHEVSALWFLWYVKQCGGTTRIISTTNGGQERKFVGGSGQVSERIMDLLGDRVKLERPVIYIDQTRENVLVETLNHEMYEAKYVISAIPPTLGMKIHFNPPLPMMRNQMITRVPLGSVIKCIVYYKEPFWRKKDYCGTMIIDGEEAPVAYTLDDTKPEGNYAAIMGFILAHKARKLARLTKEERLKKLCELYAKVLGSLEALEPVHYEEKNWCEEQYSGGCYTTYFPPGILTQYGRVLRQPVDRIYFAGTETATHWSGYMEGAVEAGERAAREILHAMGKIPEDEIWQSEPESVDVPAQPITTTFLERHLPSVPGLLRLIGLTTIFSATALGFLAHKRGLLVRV
human recombinant MAO-A, sequence (P21397 whole entry): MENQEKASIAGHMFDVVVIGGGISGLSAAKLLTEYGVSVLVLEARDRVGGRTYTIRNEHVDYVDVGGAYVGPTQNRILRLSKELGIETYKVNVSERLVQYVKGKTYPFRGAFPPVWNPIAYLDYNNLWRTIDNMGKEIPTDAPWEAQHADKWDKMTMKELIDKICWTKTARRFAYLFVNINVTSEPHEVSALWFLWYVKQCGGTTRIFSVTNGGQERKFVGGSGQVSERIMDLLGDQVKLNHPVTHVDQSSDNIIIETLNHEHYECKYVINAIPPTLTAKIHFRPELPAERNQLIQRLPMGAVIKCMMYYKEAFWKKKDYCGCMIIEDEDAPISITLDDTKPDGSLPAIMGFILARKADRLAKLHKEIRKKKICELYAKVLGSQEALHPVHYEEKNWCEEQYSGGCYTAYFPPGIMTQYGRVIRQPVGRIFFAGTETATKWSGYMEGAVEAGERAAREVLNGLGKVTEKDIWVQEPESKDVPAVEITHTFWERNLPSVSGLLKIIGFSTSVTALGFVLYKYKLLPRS
Method for human recombinant MAO-A: Monoaminooxidase (MAO) Activity Assay.
(§1) Inhibitory activity of compounds was evaluated by a homogeneous luminescent method, the MAO-Glo™ Assay (Promega), measuring the monoamine oxidase activity (MAOs) from recombinant source (microsomes from baculovirus infected insect cells, Sigma). Experiments were performed according to the Supplier's procedure, incubating human recombinant MAO-A or MAO-B with a luminogenic substrate, a derivative of beetle luciferin ((4S)-4,5-dihydro-2-(6-hydroxybenzothiazolyl)-4-thiazolecarboxylic acid). […] The MAO-Glo™ Assay was performed in two steps:
(§2) Step 1. The MAO reaction: MAO substrate was incubated with MAO-A or MAO-B (1 μg/sample) in the absence (Total activity) or presence (modulated activity) of test compounds. Total activity was determined in the presence the appropriate solvent. […] Reaction started adding the enzyme solution and samples were incubated for 60 min at room temperature. For negative control reaction, samples of MAO reaction buffer (100 mM Hepes, 5% glycerol, pH 7.5) indeed the test compound were included. For MAO-B activity assay, MAO reaction buffer contain 10% DMSO, in order to increase enzymatic activity. Step 2. […] At the end of incubation 50 μl of Luciferin Detection reagent were added to each well, plate was incubated at room temperature for 20 min, then luminescent signal was detected by luminometer (integration time 0.25-1 sec per well). […] Net MAO-dependent luminescence (net RLU) were calculated by subtracting the average luminescence of the negative control reaction without MAO enzyme. A reduction of net signal in the presence of test compound, with respect to total activity, reflect its effect on MAOs activity. […] A percentage of inhibition for each concentration tested were calculated and the IC50 value was estimated by linear regression.
Method for human recombinant MAO-B: Monoaminooxidase (MAO) Activity Assay.
as §1, §2

What is called IC50 is the concentration that gives 50% inhibition. Take `c1cn(-c2ccc3nc(-c4ccc5c(c4)OCO5)ncc3c2)cn1` [Example 13, [6-(1H-imidazol-1-yl)-2-(1,3-benzodioxol-5-yl)]quinazoline]: the IC50 is greater than 10 µM on human recombinant MAO-B, 10 µM at human recombinant MAO-A (setting [1]) and 1.34 µM on I2 Imidazoline Receptor.

Take `c1ccc2c(c1)OCC(C1=NCCN1)O2` (stereo not shown) [Idazoxan, reference compound]: the IC50 at human recombinant MAO-B was greater than 1 µM; on human recombinant MAO-A, greater than 1 µM; at I2 Imidazoline Receptor, 0.011 µM.

As for `COc1ccc(-c2ncc3cc(-n4cnc(C)c4)ccc3n2)cc1` [Example 6, [6-(4-methyl-1H-imidazol-1-yl)-2-(4-methoxyphenyl)]quinazoline], the IC50 on human recombinant MAO-B is greater than 10 µM; at human recombinant MAO-A, greater than 10 µM; on I2 Imidazoline Receptor, 1.16 µM.

In the case of `c1cn(-c2ccc3nc(-c4ccc5occc5c4)ncc3c2)cn1` [Example 14, [6-(1H-imidazol-1-yl)-2-(benzofuran-5-yl)-]quinazoline dihydrochloride trihydrate], the IC50 on human recombinant MAO-B is greater than 10 µM; at human recombinant MAO-A (setting [1]), 0.35 µM; on I2 Imidazoline Receptor, 0.61 µM.

On to `c1cn(-c2ccc3nc(-c4ccoc4)ccc3c2)cn1` [Example 20, [6-(1H-imidazol-1-yl)-2-(3-furyl)]quinoline dihydrochloride], for which the IC50 at human recombinant MAO-B was greater than 10 µM; on human recombinant MAO-A (setting [1]) it was 0.25 µM; at I2 Imidazoline Receptor it was 1.19 µM.

Consider `Cc1cn(-c2ccc3nc(-c4ccc5c(c4)OCO5)ncc3c2)cn1` [Example 9, [6-(4-methyl-1H-imidazol-1-yl)-2-(1,3-benzodioxol-5-yl)]quinazoline], for which the IC50 on human recombinant MAO-B is greater than 10 µM; at human recombinant MAO-A it was greater than 10 µM; on I2 Imidazoline Receptor it was 1.04 µM.

Broadly, the melting point is the temperature of the solid-liquid transition. Compound `Cc1nccn1-c1ccc2nc(-c3ccccc3)ncc2c1` [Example 2, [6-(2-methyl-1H-imidazol-1-yl)-2-phenyl]quinazoline] showed a melting point of 198.3 to 200.3 °C. The IC50 at human recombinant MAO-B is greater than 10 µM. Also, the IC50 at human recombinant MAO-A is greater than 10 µM. Further, the “MPE (% inhibition in immobility time)” value with CD1 Mice (dose 3 mg/Kg OS) is 17%. Besides, the “MPE (% inhibition in immobility time)” value in the series on CD1 Mice (dose 10 mg/Kg OS) stood at 77%. In the series on CD1 Mice (dose 30 mg/Kg OS), the “MPE (% inhibition in immobility time)” value came to 83%. Moreover, in the series on CD1 Mice, the ED50 is recorded as 7.1 mg/Kg; OS. Also, at I2 Imidazoline Receptor, the IC50 was 2.4 µM.

In the case of `FC(F)(F)Oc1ccc(-c2ccc3cc(-n4ccnc4)ccc3n2)cc1` [Example 23, [6-(1H-imidazol-1-yl)-2-(4-trifluoromethoxyphenyl)]quinoline dihydrochloride], the IC50 on human recombinant MAO-B is greater than 10 µM; at human recombinant MAO-A (setting [1]) it was 0.15 µM; on I2 Imidazoline Receptor, 0.82 µM.

As to `c1cn(-c2ccc3nc(-c4ccc5c(c4)OCO5)ccc3c2)cn1` [Example 16, [6-(1H-imidazol-1-yl)-2-(1,3-benzodioxol-5-yl)]quinoline dihydrochloride], the IC50 on human recombinant MAO-B was greater than 10 µM; at human recombinant MAO-A, greater than 10 µM; at I2 Imidazoline Receptor, 0.19 µM. Besides, the “MPE (% inhibition in immobility time)” value with CD1 Mice (dose 3 mg/Kg OS) turned out to be 41%; in the series with CD1 Mice (dose 10 mg/Kg OS), 66%; in the series on CD1 Mice (dose 30 mg/Kg OS) it was 100%. For the same compound, in the series with CD1 Mice, the ED50 was 4.6 mg/Kg; OS.

For the compound `COc1ccccc1-c1ccc2cc(-n3ccnc3)ccc2n1` [Example 19, [6-(1H-imidazol-1-yl)-2-(2-methoxyphenyl)]quinoline dihydrochloride], the IC50 at human recombinant MAO-B is greater than 10 µM; at human recombinant MAO-A, greater than 10 µM; at I2 Imidazoline Receptor it was 3.16 µM.

For the compound `Cc1cncn1-c1ccc2nc(-c3ccccc3)ncc2c1` [Example 5, [6-(5-methyl-1H-imidazol-1-yl)-2-phenyl]quinazoline], the IC50 was greater than 10 µM on human recombinant MAO-B, greater than 10 µM on human recombinant MAO-A and 1.18 µM on I2 Imidazoline Receptor. The “MPE (% inhibition in immobility time)” value turned out to be 41% in the series on CD1 Mice (dose 3 mg/Kg OS), 61% in the series with CD1 Mice (dose 10 mg/Kg OS) and 91% with CD1 Mice (dose 30 mg/Kg OS). The ED50 with CD1 Mice was 4.9 mg/Kg; OS.

`c1cn(-c2ccc3nc(-c4ccc5c(c4)OCCO5)ncc3c2)cn1` [Example 15, [6-(1H-imidazol-1-yl)-2-(2,3-dihydro-1,4-benzodioxin-6-yl)]quinazoline]: the half-inhibitory concentration (IC50) was greater than 10 µM at human recombinant MAO-B, greater than 10 µM on human recombinant MAO-A and 0.5 µM at I2 Imidazoline Receptor.

`Fc1ccc(-c2ccc3cc(-n4ccnc4)ccc3n2)cc1` [Example 21, [6-(1H-imidazol-1-yl)-2-(4-fluorophenyl)]quinoline dihydrochloride]: the values for the IC50 on human recombinant MAO-B, at human recombinant MAO-A and at I2 Imidazoline Receptor were greater than 10 µM, greater than 10 µM and 0.24 µM, respectively. The “MPE (% inhibition in immobility time)” value with CD1 Mice (dose 3 mg/Kg OS) is recorded as 36%; in the series on CD1 Mice (dose 10 mg/Kg OS) it was 72%; in the series on CD1 Mice (dose 30 mg/Kg OS), 89%. In the series with CD1 Mice, the ED50 is recorded as 4.9 mg/Kg; OS.

Turning to `N=C(N)NCCCCN` [Agmatine, reference compound], the IC50 is greater than 100 µM on human recombinant MAO-B, greater than 100 µM on human recombinant MAO-A and greater than 10 µM at I2 Imidazoline Receptor.

With `CN1CC[C@]23c4c5ccc(O)c4O[C@H]2[C@@H](O)C=C[C@H]3[C@H]1C5` [Morphine, reference compound], in the series with rats (2 h), the “MPE 2 h (difference in pain threshold)” value was 42.88%. Moreover, the “MPE 3 h (difference in pain threshold)” value with rats (3 h) is listed as 30.49%. Besides, the “MPE 4 h (difference in pain threshold)” value in the series on rats (4 h) was determined as 15.04%.

In the case of `Cc1cc(OC(F)(F)F)ccc1-c1ccc2cc(-n3ccnc3)ccc2n1` [Example 24, [6-(1H-imidazol-1-yl)-2-(2-methyl-4-trifluoromethoxyphenyl)]quinoline dihydrochloride], the IC50 was greater than 10 µM on human recombinant MAO-B, 0.28 µM on human recombinant MAO-A (setting [1]) and 1.14 µM at I2 Imidazoline Receptor.

`Cc1cn(-c2ccc3nc(-c4ccccc4)ncc3c2)cn1` [Example 4, [6-(4-methyl-1H-imidazol-1-yl)-2-phenyl]quinazoline]: the melting point fell in the range of 201.9 to 202.8 °C. The IC50 at human recombinant MAO-B is greater than 10 µM. In addition, at human recombinant MAO-A (setting [1]), the IC50 was determined as 2.06 µM. Also, on I2 Imidazoline Receptor, the IC50 is 0.48 µM.

With `COc1ccccc1-c1ncc2cc(-n3cnc(C)c3)ccc2n1` [Example 7, [6-(4-methyl-1H-imidazol-1-yl)-2-(2-methoxyphenyl)]quinazoline], the melting point was in the range of 160.6 to 162 °C. Moreover, at human recombinant MAO-B, the IC50 was greater than 10 µM. Besides, the IC50 at human recombinant MAO-A is greater than 10 µM. For the same compound, the IC50 on I2 Imidazoline Receptor stood at 2.18 µM.
